# Data: ChEMBL document CHEMBL1275437, “Prevalence of serotype 19A Streptococcus pneumoniae among isolates from U.S. children in 2005-2006 and activity of faropenem” (2008)
# Experiments:
# [1] = T>MIC in mouse neutropenic thigh infection model infected with multidrug-resistant Streptococcus pneumoniae; assay type: functional, Thigh muscle
# Streptococcus pneumoniae [2] = test: Antibacterial activity against Streptococcus pneumoniae serotype 19A by broth microdilution method; assay type: functional
# Streptococcus pneumoniae [3] = test: Antibacterial activity against Streptococcus pneumoniae serotype 6A/C by broth microdilution method; assay type: functional
# Streptococcus pneumoniae [4] = test: Antibacterial activity against Streptococcus pneumoniae serotype 3 by broth microdilution method; assay type: functional
# Streptococcus pneumoniae [5] = test: Antibacterial activity against Streptococcus pneumoniae serotype 19F by broth microdilution method; assay type: functional
# Streptococcus pneumoniae [6] = test: Antibacterial activity against Streptococcus pneumoniae serotype 35B by broth microdilution method; assay type: functional
# Streptococcus pneumoniae [7] = test: Antibacterial activity against Streptococcus pneumoniae serotype 23A by broth microdilution method; assay type: functional
# Streptococcus pneumoniae [8] = test: Antibacterial activity against Streptococcus pneumoniae serotype 15A by broth microdilution method; assay type: functional
# Streptococcus pneumoniae [9] = test: Antibacterial activity against Streptococcus pneumoniae serotype 33 by broth microdilution method; assay type: functional
# Streptococcus pneumoniae [10] = test: Antibacterial activity against Streptococcus pneumoniae serotype 22 by broth microdilution method; assay type: functional
# Streptococcus pneumoniae [11] = test: Antibacterial activity against multidrug-resistant Streptococcus pneumoniae infected in mouse neutropenic thigh infection model; assay type: functional; conditions: Thigh muscle
# Streptococcus pneumoniae [12] = test: Antibacterial activity against non-multidrug-resistant Streptococcus pneumoniae; assay type: functional
# [13] = T>MIC in mouse prophylaxis model infected with Bacillus anthracis; assay type: functional
# Streptococcus pneumoniae [14] = test: Antibacterial activity against multidrug-resistant Streptococcus pneumoniae; assay type: functional
# Streptococcus pneumoniae [15] = test: Antibacterial activity against Streptococcus pneumoniae serotype 19A assessed as percent susceptible isolates by broth microdilution method; assay type: functional
# Streptococcus pneumoniae [16] = test: Antibacterial activity against Streptococcus pneumoniae serotype 6A/C assessed as percent susceptible isolates by broth microdilution method; assay type: functional
# Streptococcus pneumoniae [17] = test: Antibacterial activity against Streptococcus pneumoniae serotype 3 assessed as percent susceptible isolates by broth microdilution method; assay type: functional
# Streptococcus pneumoniae [18] = test: Antibacterial activity against Streptococcus pneumoniae serotype 19F assessed as percent susceptible isolates by broth microdilution method; assay type: functional
# Streptococcus pneumoniae [19] = test: Antibacterial activity against Streptococcus pneumoniae serotype 35B assessed as percent susceptible isolates by broth microdilution method; assay type: functional
# Streptococcus pneumoniae [20] = test: Antibacterial activity against Streptococcus pneumoniae serotype 23A assessed as percent susceptible isolates by broth microdilution method; assay type: functional
# Streptococcus pneumoniae [21] = test: Antibacterial activity against Streptococcus pneumoniae serotype 15A assessed as percent susceptible isolates by broth microdilution method; assay type: functional
# Streptococcus pneumoniae [22] = test: Antibacterial activity against Streptococcus pneumoniae serotype 33 assessed as percent susceptible isolates by broth microdilution method; assay type: functional
# Streptococcus pneumoniae [23] = test: Antibacterial activity against Streptococcus pneumoniae serotype 22 assessed as percent susceptible isolates by broth microdilution method; assay type: functional
# Streptococcus pneumoniae [24] = test: Antibacterial activity against Streptococcus pneumoniae serotype 19A assessed as percent resistant isolates by broth microdilution method; assay type: functional; conditions: Streptococcus pneumoniae, serotype 19A
# Streptococcus pneumoniae [25] = test: Antibacterial activity against Streptococcus pneumoniae serotype 6A/C assessed as percent resistant isolates by broth microdilution method; assay type: functional; conditions: Streptococcus pneumoniae, serotype 6A/C
# Streptococcus pneumoniae [26] = test: Antibacterial activity against Streptococcus pneumoniae serotype 3 assessed as percent resistant isolates by broth microdilution method; assay type: functional
# Streptococcus pneumoniae [27] = test: Antibacterial activity against Streptococcus pneumoniae serotype 19F assessed as percent resistant isolates by broth microdilution method; assay type: functional; conditions: Streptococcus pneumoniae, serotype 19F
# Streptococcus pneumoniae [28] = test: Antibacterial activity against Streptococcus pneumoniae serotype 35B assessed as percent resistant isolates by broth microdilution method; assay type: functional; conditions: Streptococcus pneumoniae, serotype 35B
# Streptococcus pneumoniae [29] = test: Antibacterial activity against Streptococcus pneumoniae serotype 23A assessed as percent resistant isolates by broth microdilution method; assay type: functional
# Streptococcus pneumoniae [30] = test: Antibacterial activity against Streptococcus pneumoniae serotype 15A assessed as percent resistant isolates by broth microdilution method; assay type: functional; conditions: Streptococcus pneumoniae, serotype 15A
# Streptococcus pneumoniae [31] = test: Antibacterial activity against Streptococcus pneumoniae serotype 33 assessed as percent resistant isolates by broth microdilution method; assay type: functional
# Streptococcus pneumoniae [32] = test: Antibacterial activity against Streptococcus pneumoniae serotype 22 assessed as percent resistant isolates by broth microdilution method; assay type: functional
# Streptococcus pneumoniae [33] = test: Antibacterial activity against Streptococcus pneumoniae serotype 15A by broth microdilution method in presence of clavulanate; assay type: functional
# Streptococcus pneumoniae [34] = test: Antibacterial activity against Streptococcus pneumoniae serotype 33 by broth microdilution method in presence of clavulanate; assay type: functional
# Streptococcus pneumoniae [35] = test: Antibacterial activity against Streptococcus pneumoniae serotype 22 by broth microdilution method in presence of clavulanate; assay type: functional
# Streptococcus pneumoniae [36] = test: Antibacterial activity against Streptococcus pneumoniae serotype 19A assessed as percent susceptible isolates by broth microdilution method in presence of clavulanate; assay type: functional
# Streptococcus pneumoniae [37] = test: Antibacterial activity against Streptococcus pneumoniae serotype 6A/C assessed as percent susceptible isolates by broth microdilution method in presence of clavulanate; assay type: functional
# Streptococcus pneumoniae [38] = test: Antibacterial activity against Streptococcus pneumoniae serotype 3 assessed as percent susceptible isolates by broth microdilution method in presence of clavulanate; assay type: functional
# Streptococcus pneumoniae [39] = test: Antibacterial activity against Streptococcus pneumoniae serotype 19F assessed as percent susceptible isolates by broth microdilution method in presence of clavulanate; assay type: functional
# Streptococcus pneumoniae [40] = test: Antibacterial activity against Streptococcus pneumoniae serotype 35B assessed as percent susceptible isolates by broth microdilution method in presence of clavulanate; assay type: functional
# Streptococcus pneumoniae [41] = test: Antibacterial activity against Streptococcus pneumoniae serotype 23A assessed as percent susceptible isolates by broth microdilution method in presence of clavulanate; assay type: functional
# Streptococcus pneumoniae [42] = test: Antibacterial activity against Streptococcus pneumoniae serotype 15A assessed as percent susceptible isolates by broth microdilution method in presence of clavulanate; assay type: functional
# Streptococcus pneumoniae [43] = test: Antibacterial activity against Streptococcus pneumoniae serotype 33 assessed as percent susceptible isolates by broth microdilution method in presence of clavulanate; assay type: functional
# Streptococcus pneumoniae [44] = test: Antibacterial activity against Streptococcus pneumoniae serotype 22 assessed as percent susceptible isolates by broth microdilution method in presence of clavulanate; assay type: functional
# Streptococcus pneumoniae [45] = test: Antibacterial activity against Streptococcus pneumoniae serotype 19A assessed as percent resistant isolates by broth microdilution method in presence of clavulanate; assay type: functional
# Streptococcus pneumoniae [46] = test: Antibacterial activity against Streptococcus pneumoniae serotype 6A/C assessed as percent resistant isolates by broth microdilution method in presence of clavulanate; assay type: functional
# Streptococcus pneumoniae [47] = test: Antibacterial activity against Streptococcus pneumoniae serotype 3 assessed as percent resistant isolates by broth microdilution method in presence of clavulanate; assay type: functional
# Streptococcus pneumoniae [48] = test: Antibacterial activity against Streptococcus pneumoniae serotype 19F assessed as percent resistant isolates by broth microdilution method in presence of clavulanate; assay type: functional
# Streptococcus pneumoniae [49] = test: Antibacterial activity against Streptococcus pneumoniae serotype 35B assessed as percent resistant isolates by broth microdilution method in presence of clavulanate; assay type: functional
# Streptococcus pneumoniae [50] = test: Antibacterial activity against Streptococcus pneumoniae serotype 23A assessed as percent resistant isolates by broth microdilution method in presence of clavulanate; assay type: functional
# Streptococcus pneumoniae [51] = test: Antibacterial activity against Streptococcus pneumoniae serotype 15A assessed as percent resistant isolates by broth microdilution method in presence of clavulanate; assay type: functional
# Streptococcus pneumoniae [52] = test: Antibacterial activity against Streptococcus pneumoniae serotype 33 assessed as percent resistant isolates by broth microdilution method in presence of clavulanate; assay type: functional
# Streptococcus pneumoniae [53] = test: Antibacterial activity against Streptococcus pneumoniae serotype 22 assessed as percent resistant isolates by broth microdilution method in presence of clavulanate; assay type: functional
# Streptococcus pneumoniae [54] = test: Antibacterial activity against Streptococcus pneumoniae serotype 19A by broth microdilution method in presence of clavulanate; assay type: functional
# Streptococcus pneumoniae [55] = test: Antibacterial activity against Streptococcus pneumoniae serotype 6A/C by broth microdilution method in presence of clavulanate; assay type: functional
# Streptococcus pneumoniae [56] = test: Antibacterial activity against Streptococcus pneumoniae serotype 3 by broth microdilution method in presence of clavulanate; assay type: functional
# Streptococcus pneumoniae [57] = test: Antibacterial activity against Streptococcus pneumoniae serotype 19F by broth microdilution method in presence of clavulanate; assay type: functional
# Streptococcus pneumoniae [58] = test: Antibacterial activity against Streptococcus pneumoniae serotype 35B by broth microdilution method in presence of clavulanate; assay type: functional
# Streptococcus pneumoniae [59] = test: Antibacterial activity against Streptococcus pneumoniae serotype 23A by broth microdilution method in presence of clavulanate; assay type: functional
compound,measurement,setting,value
C[C@@H](O)[C@H]1C(=O)N2C(C(=O)O)=C([C@H]3CCCO3)S[C@H]12 [FAROPENEM],fT>MIC,[1],13.9%
same,MIC90,Streptococcus pneumoniae [2],1 µg/mL
same,MIC90,Streptococcus pneumoniae [3],0.25 µg/mL
same,MIC90,Streptococcus pneumoniae [4],0.015 µg/mL
same,MIC90,Streptococcus pneumoniae [5],1 µg/mL
same,MIC90,Streptococcus pneumoniae [6],0.5 µg/mL
same,MIC90,Streptococcus pneumoniae [7],0.06 µg/mL
same,MIC90,Streptococcus pneumoniae [8],0.12 µg/mL
same,MIC90,Streptococcus pneumoniae [9],0.015 µg/mL
same,MIC90,Streptococcus pneumoniae [10],0.015 µg/mL
same,MIC90,Streptococcus pneumoniae [11],> 2 µg/mL
same,MIC90,Streptococcus pneumoniae [12],0.25 µg/mL
same,fT>MIC,[13],16.4%
same,MIC90,Streptococcus pneumoniae [14],2 µg/mL
C=CC1=C(C(=O)O)N2C(=O)[C@@H](NC(=O)/C(=N\O)c3csc(N)n3)[C@H]2SC1 [CEFDINIR],MIC90,Streptococcus pneumoniae [2],> 8 µg/mL
same,MIC90,Streptococcus pneumoniae [3],2 µg/mL
same,MIC90,Streptococcus pneumoniae [4],0.12 µg/mL
same,MIC90,Streptococcus pneumoniae [5],> 8 µg/mL
same,MIC90,Streptococcus pneumoniae [6],4 µg/mL
same,MIC90,Streptococcus pneumoniae [7],0.5 µg/mL
same,MIC90,Streptococcus pneumoniae [8],1 µg/mL
same,MIC90,Streptococcus pneumoniae [9],0.12 µg/mL
same,MIC90,Streptococcus pneumoniae [10],0.12 µg/mL
same,percent susceptible isolates,Streptococcus pneumoniae [15],46%
same,percent susceptible isolates,Streptococcus pneumoniae [16],59%
same,% susceptible isolates,Streptococcus pneumoniae [17],100%
same,percent susceptible isolates,Streptococcus pneumoniae [18],33%
same,% susceptible isolates,Streptococcus pneumoniae [19],0%
same,percent susceptible isolates,Streptococcus pneumoniae [20],93%
same,percent susceptible isolates,Streptococcus pneumoniae [21],72%
same,% susceptible isolates,Streptococcus pneumoniae [22],100%
same,% susceptible isolates,Streptococcus pneumoniae [23],100%
same,% resistant isolates,Streptococcus pneumoniae [24],53%
same,% resistant isolates,Streptococcus pneumoniae [25],15%
same,% resistant isolates,Streptococcus pneumoniae [26],0%
same,% resistant isolates,Streptococcus pneumoniae [27],67%
same,% resistant isolates,Streptococcus pneumoniae [28],100%
same,% resistant isolates,Streptococcus pneumoniae [29],0%
same,% resistant isolates,Streptococcus pneumoniae [30],7%
same,% resistant isolates,Streptococcus pneumoniae [31],0%
same,% resistant isolates,Streptococcus pneumoniae [32],0%
CC1(C)S[C@@H]2[C@H](NC(=O)[C@H](N)c3ccc(O)cc3)C(=O)N2[C@H]1C(=O)O [AMOXICILLIN],MIC90,Streptococcus pneumoniae [33],0.25 µg/mL
same,MIC90,Streptococcus pneumoniae [34],≤ 0.12 µg/mL
same,MIC90,Streptococcus pneumoniae [35],≤ 0.12 µg/mL
same,% susceptible isolates,Streptococcus pneumoniae [36],62%
same,% susceptible isolates,Streptococcus pneumoniae [37],97%
same,% susceptible isolates,Streptococcus pneumoniae [38],100%
same,% susceptible isolates,Streptococcus pneumoniae [39],47%
same,% susceptible isolates,Streptococcus pneumoniae [40],100%
same,% susceptible isolates,Streptococcus pneumoniae [41],100%
same,% susceptible isolates,Streptococcus pneumoniae [42],100%
same,% susceptible isolates,Streptococcus pneumoniae [43],100%
same,% susceptible isolates,Streptococcus pneumoniae [44],100%
same,% resistant isolates,Streptococcus pneumoniae [45],35%
same,% resistant isolates,Streptococcus pneumoniae [46],3%
same,% resistant isolates,Streptococcus pneumoniae [47],0%
same,% resistant isolates,Streptococcus pneumoniae [48],48%
same,% resistant isolates,Streptococcus pneumoniae [49],0%
same,% resistant isolates,Streptococcus pneumoniae [50],0%
same,% resistant isolates,Streptococcus pneumoniae [51],0%
same,% resistant isolates,Streptococcus pneumoniae [52],0%
same,% resistant isolates,Streptococcus pneumoniae [53],0%
same,MIC90,Streptococcus pneumoniae [54],8 µg/mL
same,MIC90,Streptococcus pneumoniae [55],1 µg/mL
same,MIC90,Streptococcus pneumoniae [56],≤ 0.12 µg/mL
same,MIC90,Streptococcus pneumoniae [57],16 µg/mL
same,MIC90,Streptococcus pneumoniae [58],2 µg/mL
same,MIC90,Streptococcus pneumoniae [59],0.25 µg/mL
CO/N=C(\C(=O)N[C@@H]1C(=O)N2C(C(=O)OC(C)OC(C)=O)=C(COC(N)=O)CS[C@H]12)c1ccco1 (stereo not given in full) [CEFUROXIME AXETIL],MIC90,Streptococcus pneumoniae [2],16 µg/mL
same,MIC90,Streptococcus pneumoniae [3],4 µg/mL
same,MIC90,Streptococcus pneumoniae [4],≤ 0.5 µg/mL
same,MIC90,Streptococcus pneumoniae [5],32 µg/mL
same,MIC90,Streptococcus pneumoniae [6],4 µg/mL
same,MIC90,Streptococcus pneumoniae [7],1 µg/mL
same,MIC90,Streptococcus pneumoniae [8],4 µg/mL
same,MIC90,Streptococcus pneumoniae [9],≤ 0.5 µg/mL
same,MIC90,Streptococcus pneumoniae [10],≤ 0.5 µg/mL
same,percent susceptible isolates,Streptococcus pneumoniae [15],46%
same,percent susceptible isolates,Streptococcus pneumoniae [16],64%
same,% susceptible isolates,Streptococcus pneumoniae [17],100%
same,percent susceptible isolates,Streptococcus pneumoniae [18],33%
same,% susceptible isolates,Streptococcus pneumoniae [19],0%
same,percent susceptible isolates,Streptococcus pneumoniae [20],93%
same,percent susceptible isolates,Streptococcus pneumoniae [21],72%
same,% susceptible isolates,Streptococcus pneumoniae [22],100%
same,% susceptible isolates,Streptococcus pneumoniae [23],100%
same,% resistant isolates,Streptococcus pneumoniae [24],52%
same,% resistant isolates,Streptococcus pneumoniae [25],15%
same,% resistant isolates,Streptococcus pneumoniae [26],0%
same,% resistant isolates,Streptococcus pneumoniae [27],67%
same,% resistant isolates,Streptococcus pneumoniae [28],100%
same,% resistant isolates,Streptococcus pneumoniae [29],0%
same,% resistant isolates,Streptococcus pneumoniae [30],21%
same,% resistant isolates,Streptococcus pneumoniae [31],0%
same,% resistant isolates,Streptococcus pneumoniae [32],0%
